Results as given in patent US7244738B2, “Arylamine-substituted quinazolinone compounds useful as alpha 1A/B adrenergic receptor antagonists” (Roche Palo Alto LLC, priority 2003, dated 2007).

Row | melting point | Compound
1 | 160 to 162.1 °C | COc1cc2[nH]c(N(C)Cc3cccc(CN4CCOCC4)c3)nc(=O)c2c(OC)c1OC [Example 110, 5,6,7-Trimethoxy-2-[methyl-(3-morpholin-4-ylmethyl-benzyl)-amino]-1H-quinazolin-4-one]
2 | 158.2 to 158.9 °C | CCNCc1cccc(CN(C)c2nc(=O)c3c(C)c(OC)c(OC)cc3[nH]2)c1 [Example 113, 2-[(3-Ethylaminomethyl-benzyl)-methyl-amino]-6,7-dimethoxy-5-methyl-1H-quinazolin-4-one]
3 | 106.5 to 108.9 °C | CCN(C)Cc1cccc(CN(C)c2nc(=O)c3c(OC)c(OC)c(OC)cc3[nH]2)c1 [Example 114, 2-({3-[(Ethyl-methyl-amino)-methyl]-benzyl}-methyl-amino)-5,6,7-trimethoxy-1H-quinazolin-4-one]
4 | 163 to 164.9 °C | COCCNS(=O)(=O)c1cccc(CN(C)c2nc(=O)c3c(C)c(OC)c(OC)cc3[nH]2)c1 [Example 131, 3-{[(6,7-Dimethoxy-5-methyl-4-oxo-1,4-dihydro-quinazolin-2-yl)-methyl-amino]-methyl}-N-(2-methoxy-ethyl)-benzenesulfonamide]
5 | 176.9 to 179.1 °C | COCCNS(=O)(=O)c1cccc(CN(C)c2nc(=O)c3c(OC)c(OC)c(OC)cc3[nH]2)c1 [Example 132, N-(2-Methoxy-ethyl)-3-{[methyl-(5,6,7-trimethoxy-4-oxo-1,4-dihydro-quinazolin-2-yl)-amino]-methyl}-benzenesulfonamide]
6 | 217.9 to 219.1 °C | CNC(=O)c1cccc(CN(C)c2nc(=O)c3c(OC)c(OC)c(OC)cc3[nH]2)c1 [Example 137, N-Methyl-3-{[methyl-(5,6,7-trimethoxy-4-oxo-1,4-dihydro-quinazolin-2-yl)-amino]-methyl}-benzamide]
7 | 212.3 to 215.1 °C | COc1cc2[nH]c(N(C)Cc3cccc(O)c3)nc(=O)c2c(OC)c1OC [Example 155, 2-[(3-Hydroxy-benzyl)-methyl-amino]-5,6,7-trimethoxy-1H-quinazolin-4-one]
8 | > 300 °C | COc1cc2[nH]c(N(C)Cc3cccc(OCC(=O)O)c3)nc(=O)c2c(OC)c1OC [Example 158, (3-{[Methyl-(5,6,7-trimethoxy-4-oxo-1,4-dihydro-quinazolin-2-yl)-amino]-methyl}-phenoxy)-acetic acid]
9 | 150.1 to 152 °C | COCCCOc1cccc(CN(C)c2nc(=O)c3c(C)c(OC)c(OC)cc3[nH]2)c1 [Example 162, 6,7-Dimethoxy-2-{[3-(3-methoxy-propoxy)-benzyl]-methyl-amino}-5-methyl-1H-quinazolin-4-one]
10 | 137.9 to 141.9 °C | COc1cc2[nH]c(N(C)Cc3cccc(OCCN(C)C)c3)nc(=O)c2c(C)c1OC [Example 164, 2-{[3-(2-Dimethylamino-ethoxy)-benzyl]-methyl-amino}-6,7-dimethoxy-5-methyl-1H-quinazolin-4-one]
11 | 174.4 to 174.8 °C | COc1cc2[nH]c(N(C)Cc3cccc(/N=C(\C)N(C)C)c3)nc(=O)c2c(C)c1OC [Example 167, N′-(3-{[(6,7-Dimethoxy-5-methyl-4-oxo-1,4-dihydro-quinazolin-2-yl)-methyl-amino]-methyl}-phenyl)-N,N-dimethyl-acetamide]
12 | 195.3 to 199 °C | COc1cc2[nH]c(N(C)Cc3cccc(NS(=O)(=O)N(C)C)c3)nc(=O)c2c(C)c1OC [Example 169, N′-(3-{[(6,7-dimethoxy-5-methyl-4-oxo-1,4-dihydro-quinazolin-2-yl)-methyl-amino]-methyl}-phenyl)-N,N-dimethylsulfamide]
13 | 191.9 to 194.1 °C | COC(=O)N(C)c1cccc(CN(C)c2nc(=O)c3c(C)c(OC)c(OC)cc3[nH]2)c1 [Example 178, (3-{[(6,7-Dimethoxy-5-methyl-4-oxo-1,4-dihydro-quinazolin-2-yl)-methyl-amino]-methyl}-phenyl)-methyl-carbamic acid methyl ester]
14 | 165 to 167 °C | CONC(=O)Nc1cccc(CN(C)c2nc(=O)c3c(OC)c(OC)c(OC)cc3[nH]2)c1 [Example 181, N-Methoxy-N′-(3-{[methyl-(5,6,7-trimethoxy-4-oxo-1,4-dihydro-quinazolin-2-yl)-amino]-methyl-}-phenyl)-urea]

Second part, the compound before the results:

Row | Compound | melting point
15 | COc1cc2[nH]c(N(C)Cc3cccc(CC#N)c3)nc(=O)c2c(OC)c1OC [Example 107, (3-{[Methyl-(5,6,7-trimethoxy-4-oxo-1,4-dihydro-quinazloin-2-yl)-amino]-methyl}-phenyl)-acetonitrile] | 149.5 to 153.3 °C
16 | CNCc1cccc(CN(C)c2nc(=O)c3c(OC)c(OC)c(OC)cc3[nH]2)c1 [Example 111, 5,6,7-Trimethoxy-2-[methyl-(3-methylaminomethyl-benzyl)-amino]-1H-quinazolin-4-one] | 124.9 to 127.6 °C
17 | COCC(=O)N(C)Cc1cccc(CN(C)c2nc(=O)c3c(C)c(OC)c(OC)cc3[nH]2)c1 [Example 119, N-(3-{[(6,7-Dimethoxy-5-methyl-4-oxo-1,4-dihydro-quinazolin-2-yl)-methyl-amino]-methyl}-benzyl)-2-methoxy-N-methyl-acetamide] | 150 to 151.2 °C
18 | COCC(=O)N(C)Cc1cccc(CN(C)c2nc(=O)c3c(OC)c(OC)c(OC)cc3[nH]2)c1 [Example 120, 2-Methoxy-N-methyl-N-(3-{[methyl-(5,6,7-trimethoxy-4-oxo-1,4-dihydro-quinazolin-2-yl)-amino]-methyl}-benzyl)-acetamide] | 115 to 117 °C
19 | CCN(CCOC)Cc1cccc(CN(C)c2nc(=O)c3c(C)c(OC)c(OC)cc3[nH]2)c1 [Example 121, 2-[(3-{[Ethyl(2-methoxy-ethyl)-amino]-methyl}-benzyl)-methyl-azmino]-6,7-dimethoxy-5-methyl-1H-quinazolin-4-one] | 121.8 to 122.3 °C
20 | COc1cc2[nH]c(N(C)Cc3cccc(CN4CCCC4)c3)nc(=O)c2c(C)c1OC [Example 122, 6,7-Dimethoxy-5-methyl-2-[methyl-(3-pyrrolidin-1-ylmethyl-benzyl)-amino]-1H-quinazolin-4-one] | 163.9 to 164.5 °C
21 | COc1cc2[nH]c(N(C)Cc3cccc(S(C)(=O)=O)c3)nc(=O)c2c(C)c1OC [Example 128, 2-[(3-Methanesulfonyl-benzyl)-methyl-amino]-6,7-dimethoxy-5-methyl-1H-quinazolin-4-one] | 269.5 to 271.5 °C
22 | COc1cc2[nH]c(N(C)Cc3cccc(S(C)(=O)=O)c3)nc(=O)c2c(OC)c1OC [Example 129, 2-[(3-Methanesulfonyl-benzyl)-methyl-amino]-5,6,7-trimethoxy-1H-quinazolin-4-one] | 231.5 to 232.9 °C
23 | COc1cc2[nH]c(N(C)Cc3cccc(S(=O)(=O)N(C)C)c3)nc(=O)c2c(OC)c1OC [Example 130] | 199.9 to 204 °C
24 | COc1cc2[nH]c(N(C)Cc3cccc(C(=O)O)c3)nc(=O)c2c(C)c1OC [Example 134, 3-{[(6,7-Dimethoxy-5-methyl-4-oxo-1,4-dihydro-quinazolin-2-yl)-methyl-amino]-methyl}-benzoic acid] | 283.1 to 286.2 °C
25 | CNC(=O)c1cccc(CN(C)c2nc(=O)c3c(C)c(OC)c(OC)cc3[nH]2)c1 [Example 136, 3-{[(6,7-Dimethoxy-5-methyl-44-oxo-1,4-dihydro-quinazolin-2-yl)-methyl-amino]-methyl}-N-methyl-benzamide] | 243.3 to 245.1 °C
26 | COc1cc2[nH]c(N(C)Cc3cccc(O)c3)nc(=O)c2c(C)c1OC [Example 154, 2-[(3-Hydroxy-benzyl)-methyl-amino]-6,7-dimethoxy-5-methyl-1H-quinazolin-4-one] | 252.9 to 254.35 °C
27 | COc1cc2[nH]c(N(C)Cc3cccc(OCC(=O)O)c3)nc(=O)c2c(C)c1OC [Example 157, (3-{[(6,7-Dimethoxy-5-methyl-4-oxo-1,4-dihydro-quinazolin-2-yl)-methyl-amino]-methyl}-phenoxy)-acetic acid] | > 300 °C
28 | COCCOc1cccc(CN(C)c2nc(=O)c3c(C)c(OC)c(OC)cc3[nH]2)c1 [Example 160, 6,7-Dimethoxy-2-{[3-(2-methoxy-ethoxy)-benzyl]-methyl-amino}-5-methyl-1H-quinazolin-4-one] | 176.6 to 177.9 °C
29 | CCNCCOc1cccc(CN(C)c2nc(=O)c3c(C)c(OC)c(OC)cc3[nH]2)c1 [Example 165, 2-{[3-(2-Ethylamino-ethoxy)-benzyl]-methyl-amino}-6,7-dimethoxy-5-methyl-1H-quinazolin-4-one] | 264.6 to 266.5 °C
30 | COc1cc2[nH]c(N(C)Cc3cccc(N(C)S(=O)(=O)N(C)C)c3)nc(=O)c2c(C)c1OC [Example 170, N-(3-{[(6,7-dimethoxy-5-methyl-4-oxo-1,4-dihydro-quinazolin-2-yl)-methyl-amino]-methyl}-phenyl)-N,N′,N′-trimethylsulfamide] | 160 to 161.7 °C
31 | COc1cc2[nH]c(N(C)Cc3cccc(NS(=O)(=O)N(C)C)c3)nc(=O)c2c(OC)c1OC [Example 171, N,N-Dimethyl-N′-(3-{[methyl-(5,6,7-trimethoxy-4-oxo-1,4-dihydro-quinazolin-2-yl)-amino]-methyl}-phenyl)-sulfamide] | 176.5 to 179.7 °C
32 | COc1cc2[nH]c(N(C)Cc3cccc(N(C)S(=O)(=O)N(C)C)c3)nc(=O)c2c(OC)c1OC [Example 172, N,N,N′-Trimethyl-N′-(3-{[methyl-(5,6,7-trimethoxy-4-oxo-1,4-dihydro-quinazolin-2-yl)-amino]-methyl}-phenyl)-sulfamide] | 170.3 to 172.3 °C
33 | COC(=O)Nc1cccc(CN(C)c2nc(=O)c3c(OC)c(OC)c(OC)cc3[nH]2)c1 [Example 177, (3-{[Methyl-(5,6,7-trimethoxy-4-oxo-1,4-dihydro-quinazolin-2-yl)-amino]-methyl}-phenyl)-carbamic acid methylester] | 230.9 to 232.1 °C
34 | COc1cc2[nH]c(N(C)Cc3cccc(NC(=O)N(C)C)c3)nc(=O)c2c(C)c1OC [Example 180, 3-(3-{[(6,7-Dimethoxy-5-methyl-4-oxo-1,4-dihydro-quinazolin-2-yl)-methyl-amino]-methyl}-phenyl)-1,1-dimethyl-urea] | 131.5 to 168 °C
